According to PubChem BioAssay AID256 (DTP/NCI, 2004):
Toxic doses and inconclusive results are not listed. The calls were made as follows: active = survival T/C of 150% or more; inactive = T/C below 125% in these data.

Tested on: CD2F1 mice, L1210 leukemia ip, survival T/C
Experiment: NCI In Vivo Anticancer Drug Screen. Data for tumor model L1210 Leukemia (intraperitoneal) in CD2F1 (CDF1) mice
Settings: endpoint: mean survival time, higher = longer survival
Outline: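 Mice carrying a transplanted tumor received test compound or vehicle alone. The value is the measurement in the treated group divided by that in the vehicle-treated control group.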

[1] = dose: 100.0 mg/kg/injection, schedule: Q01DX009 (ip), vehicle: saline with Tween-80
[2] = dose: 200.0 mg/kg/injection, schedule: Q01DX009 (ip), vehicle: saline with Tween-80
[3] = dose: 400.0 mg/kg/injection, schedule: Q01DX009 (ip), vehicle: saline with Tween-80
[4] = dose: 25.0 mg/kg/injection, schedule: Q01DX009 (ip), vehicle: saline
[5] = dose: 6.25 mg/kg/injection, schedule: Q04DX003 (ip), vehicle: saline with Tween-80
[6] = dose: 12.5 mg/kg/injection, schedule: Q01DX009 (ip), vehicle: saline with Tween-80
[7] = dose: 12.5 mg/kg/injection, schedule: Q04DX003 (ip), vehicle: saline with Tween-80
[8] = dose: 100.0 mg/kg/injection, schedule: Q04DX002 (ip), vehicle: saline with Tween-80
[9] = dose: 200.0 mg/kg/injection, schedule: Q04DX002 (ip), vehicle: saline with Tween-80
[10] = dose: 400.0 mg/kg/injection, schedule: Q04DX002 (ip), vehicle: saline with Tween-80
[11] = dose: 50.0 mg/kg/injection, schedule: Q01DX009 (ip), vehicle: saline
[12] = dose: 100.0 mg/kg/injection, schedule: Q01DX009 (ip), vehicle: saline
[13] = dose: 100.0 mg/kg/injection, schedule: Q04DX003 (ip), vehicle: saline with Tween-80
[14] = dose: 200.0 mg/kg/injection, schedule: Q04DX003 (ip), vehicle: saline with Tween-80
[15] = dose: 400.0 mg/kg/injection, schedule: Q04DX003 (ip), vehicle: saline with Tween-80
[16] = dose: 100.0 mg/kg/injection, schedule: Q04DX003 (ip), vehicle: saline
[17] = dose: 200.0 mg/kg/injection, schedule: Q04DX003 (ip), vehicle: saline
[18] = dose: 400.0 mg/kg/injection, schedule: Q04DX003 (ip), vehicle: saline

Measured: T/C

O=c1[nH]c(=O)n(C2CC(O)C(CO)O2)cc1CN1CCCC1 (configuration not stated)
inactive: dose: 6.25 mg/kg/injection, schedule: Q01DX005 (ip), vehicle: water 95 % of control | dose: 12.5 mg/kg/injection, schedule: Q01DX005 (ip), vehicle: water 109 % of control | dose: 25.0 mg/kg/injection, schedule: Q01DX005 (ip), vehicle: water 87 % of control | dose: 50.0 mg/kg/injection, schedule: Q01DX005 (ip), vehicle: water 102 % of control | dose: 100.0 mg/kg/injection, schedule: Q01DX005 (ip), vehicle: water 102 % of control | dose: 200.0 mg/kg/injection, schedule: Q01DX005 (ip), vehicle: water 96 % of control | dose: 400.0 mg/kg/injection, schedule: Q01DX005 (ip), vehicle: water 96 % of control

Nc1ncnc2c1c1c(=O)[nH]cnc1n2C1OC(CO)C(O)C1O (configuration not stated)
inactive: dose: 6.25 mg/kg/injection, schedule: Q01DX005 (ip), vehicle: Klucel (hydroxypropylcellulose) (HPC) 98 % of control | dose: 12.5 mg/kg/injection, schedule: Q01DX005 (ip), vehicle: Klucel (hydroxypropylcellulose) (HPC) 104 % of control | dose: 25.0 mg/kg/injection, schedule: Q01DX005 (ip), vehicle: Klucel (hydroxypropylcellulose) (HPC) 108 % of control | dose: 50.0 mg/kg/injection, schedule: Q01DX005 (ip), vehicle: Klucel (hydroxypropylcellulose) (HPC) 115 % of control | dose: 100.0 mg/kg/injection, schedule: Q01DX005 (ip), vehicle: Klucel (hydroxypropylcellulose) (HPC) 120 % of control

CC(C)OC(=O)C(NC=O)C(C)(C)S (configuration not stated)
inactive: [1] 100 % of control | [2] 96 % of control | [3] 95 % of control

C1CCC(CCC2CCCC[N-]2)[N-]C1.[I][Zn][I] (configuration not stated)
inactive: dose: 25.0 mg/kg/injection, schedule: Q01DX001 (ip), vehicle: saline with Tween-80 107 % of control | dose: 50.0 mg/kg/injection, schedule: Q01DX001 (ip), vehicle: saline with Tween-80 86 % of control | dose: 100.0 mg/kg/injection, schedule: Q01DX001 (ip), vehicle: saline with Tween-80 86 % of control | dose: 100.0 mg/kg/injection, schedule: Q01DX001 (ip), vehicle: saline 103 % of control | dose: 200.0 mg/kg/injection, schedule: Q01DX001 (ip), vehicle: saline 100 % of control

C[N+](C)(CC(=O)Nc1ccc(Cl)c(Cl)c1)CC(=O)c1ccc(Cl)cc1
inactive: [4] 87 % of control

Nc1cccc2c1C(=O)c1ccccc1C2=O
inactive: dose: 100.0 mg/kg/injection, schedule: Q04DX003 (ip), vehicle: other 97 % of control | dose: 200.0 mg/kg/injection, schedule: Q04DX003 (ip), vehicle: other 92 % of control | dose: 400.0 mg/kg/injection, schedule: Q04DX003 (ip), vehicle: other 95 % of control

COc1ccc2[nH]c3c(C)c4cc[n+](C)cc4c(C)c3c2c1
inactive: dose: 3.13 mg/kg/injection, schedule: Q01DX009 (ip), vehicle: saline 120 % of control | dose: 6.25 mg/kg/injection, schedule: Q01DX009 (ip), vehicle: saline with Tween-80 122 % of control | dose: 6.25 mg/kg/injection, schedule: Q01DX009 (ip), vehicle: saline 120 % of control | [5] 105 % of control | [6] 87 % of control | dose: 12.5 mg/kg/injection, schedule: Q01DX009 (ip), vehicle: saline 110 % of control | [7] 108 % of control | dose: 25.0 mg/kg/injection, schedule: Q04DX003 (ip), vehicle: saline sonified 116 % of control | dose: 25.0 mg/kg/injection, schedule: Q04DX003 (ip), vehicle: saline with Tween-80 101 % of control | dose: 37.5 mg/kg/injection, schedule: Q04DX003 (ip), vehicle: saline sonified 86 % of control

NNC(=O)C(N)Cc1cnc[nH]1 (configuration not stated)
inactive: dose: 50.0 mg/kg/injection, schedule: Q04DX002 (ip), vehicle: saline with Tween-80 100 % of control | [8] 100 % of control | [9] 122 % of control | [10] 118 % of control

O=C(C1=CC=CC1=P(c1ccccc1)(c1ccccc1)c1ccccc1)C(Cl)(Cl)Cl
inactive: [1] 94 % of control | [2] 107 % of control | [3] 107 % of control

CN(C)CC1CCCCN1 (configuration not stated)
inactive: [11] 94 % of control | [12] 94 % of control | dose: 200.0 mg/kg/injection, schedule: Q01DX009 (ip), vehicle: saline 94 % of control

Cc1ccc([I+]c2ccc(C)cc2)cc1
inactive: dose: 0.25 mg/kg/injection, schedule: Q01DX009 (ip), vehicle: Klucel (hydroxypropylcellulose) (HPC) 98 % of control | dose: 0.5 mg/kg/injection, schedule: Q01DX009 (ip), vehicle: Klucel (hydroxypropylcellulose) (HPC) 98 % of control | dose: 1.0 mg/kg/injection, schedule: Q01DX009 (ip), vehicle: Klucel (hydroxypropylcellulose) (HPC) 105 % of control

COCCCNC1=C(C#N)C(=O)NC(c2cccc([N+](=O)[O-])c2)S1 (configuration not stated)
inactive: [6] 94 % of control | dose: 25.0 mg/kg/injection, schedule: Q01DX009 (ip), vehicle: saline with Tween-80 96 % of control | dose: 50.0 mg/kg/injection, schedule: Q01DX009 (ip), vehicle: saline with Tween-80 96 % of control | [1] 100 % of control | [2] 102 % of control | [3] 103 % of control

O=C(C(Oc1ccc(Cl)cc1)Oc1ccc(Cl)cc1)N(O)c1ccccc1OCc1ccccc1
inactive: [13] 102 % of control | [14] 96 % of control | [15] 94 % of control

c1ccc(P2(c3ccccc3)=NP(c3ccccc3)(c3ccccc3)=NP(c3ccccc3)(c3ccccc3)=N2)cc1
inactive: [16] 102 % of control | [17] 94 % of control | [18] 96 % of control

C1CCC2(CC1)NCCO2
inactive: dose: 100.0 mg/kg/injection, schedule: Q01DX009 (ip), vehicle: saline sonified 96 % of control | dose: 200.0 mg/kg/injection, schedule: Q01DX009 (ip), vehicle: saline sonified 93 % of control

CC(O)C(C)(C)CO (configuration not stated)
inactive: [16] 88 % of control | [17] 88 % of control | [18] 93 % of control

O=CNc1ccc(I)cc1
inactive: [13] 106 % of control | [14] 98 % of control | [15] 101 % of control

C/C=C1/C[C@@H](C)[C@@](C)(O)C(=O)OCC2=CCN3CC[C@@H](OC1=O)[C@@H]23
inactive: dose: 50.0 mg/kg/injection, schedule: Q04DX003 (ip), vehicle: saline with Tween-80 103 % of control | [13] 103 % of control | [14] 98 % of control

COC(=O)c1cc2ccccc2[nH]c1=O
inactive: dose: 75.0 mg/kg/injection, schedule: Q01DX001 (ip), vehicle: other 97 % of control | dose: 150.0 mg/kg/injection, schedule: Q01DX001 (ip), vehicle: other 96 % of control | dose: 300.0 mg/kg/injection, schedule: Q01DX001 (ip), vehicle: other 97 % of control

CC(=O)C12CC3CC1C2C3
inactive: dose: 75.0 mg/kg/injection, schedule: Q01DX001 (ip), vehicle: saline 101 % of control | dose: 150.0 mg/kg/injection, schedule: Q01DX001 (ip), vehicle: saline 98 % of control | dose: 300.0 mg/kg/injection, schedule: Q01DX001 (ip), vehicle: saline 93 % of control

O=C1C=Cc2ccccc2/C1=C/c1nc(/C=C/c2ccccc2)oc1O
inactive: [8] 117 % of control | [9] 113 % of control | [10] 105 % of control

O=[N+]([O-])c1ccc(OP2(Oc3ccc([N+](=O)[O-])cc3)=NP(Oc3ccc([N+](=O)[O-])cc3)(Oc3ccc([N+](=O)[O-])cc3)=NP(Oc3ccc([N+](=O)[O-])cc3)(Oc3ccc([N+](=O)[O-])cc3)=NP(Oc3ccc([N+](=O)[O-])cc3)(Oc3ccc([N+](=O)[O-])cc3)=N2)cc1
inactive: [4] 100 % of control | [11] 100 % of control | [12] 100 % of control | [16] 102 % of control | [17] 100 % of control | [18] 96 % of control

N=C1N(c2ccccc2)CCN1c1ccccc1
inactive: [5] 94 % of control | [7] 92 % of control
